From patent US7033829B2, “Method to inhibit cell growth using oligonucleotides” (Trustees of Boston University, priority 2000, dated 2006)

Key:
[1] = test system: Human squamous carcinoma cell line SCC12F cells; assay: Cell growth / cell yield of SCC12F cells (Coulter counter); type: cell-based; details: 100 μM; days 1, 3, 4, 5 after dosage
Experimental: Human squamous carcinoma cell line SCC12F cells were maintained in primary keratinocyte medium (300 ml DME, 100 ml F-12 nutrient supplement, 50 ml 10× adenine, 50 ml fetal bovine serum, 5 ml penicillin/streptomycin stock, and 0.5 ml of 10 μg/ml epidermal growth factor and hydrocortisone to final concentration of 1.4 μg/ml) and dosed with either water (diluent), 100 μM pTpT (T2, Midland Certified Reagent Company, Midland, Tex.) or 100 μM pdApdA (A2). Cells were harvested before dosing (day 0), and 1, 3, 4, and 5 days after dosage, and were counted by Coulter™ counter. After harvesting, the cells were processed for total RNA isolation and were analyzed by Northern blot. Addition of a control deoxyadenine dinucleotide (pdApdA), a compound very similar to pTpT but not readily dimerized by UV irradiation, and therefore rarely excised during the course of UV-induced DNA repair, has no effect.
In a second experiment, SCC12F cells were cultured as described above. Two or three days after seeding, the preconfluent cultures were given fresh medium supplemented with either 100 μM T2 or diluent as a control. Cells were collected daily by trypsinization and counted by Coulter™ counter. The cell yield in cultures treated with T2 was reduced by […] compared to that of paired control cultures after five days (FIG. 2). This corresponds to 2.3 population doublings in this time for control cells, compared with 1 doubling for T2-treated cells.
pTpT was previously found to inhibit cell cycle progression, at least in part through activation of p53 and subsequent upregulation of the cyclin dependent kinase inhibitor p21. Cultures of the human keratinocyte line SCC12F were treated with pTpT, SEQ ID NO: 1, SEQ ID NO: 6 or diluent alone as a negative control, collected and counted 48 hours later and processed for northern blot analysis of p21 mRNA expression. […] Thus, the sequences of the present invention activate p53 and inhibit cell proliferation similar to the effect of pTpT.
Exposure of keratinocytes to UVB irradiation affects the expression of genes involved in cell cycle arrest, DNA repair and cytokine production. Single-stranded oligonucleotides sharing sequence homology with the telomere 3′ overhang, when introduced into cells, mimic these UV effects. To identify other genes that may be similarly modulated, cells of keratinocyte origin (SCC12F; a human epidermal squamous cell carcinoma line provided by Dr. James Rheinwald of Harvard University) were exposed to solar simulated irradiation (SSR) (20 mJ/cm^2, measured at 285±5 nm), to an 11-base oligonucleotide (pGTTAGGGTTAG; SEQ ID NO:5) homologous to the telomere overhang (T-oligo), or to a complementary sequence as control [pCTAACCCTAAC; (SEQ ID NO:9) control oligonucleotide]. […] These are mitochondrial-transcribed genes whose encoded proteins participate in cellular respiration.

[2] = test system: GADD 45, ERCC 3 and SDI 1 mRNA; assay: Northern blot of GADD 45, ERCC 3 and SDI 1 in SCC12F cells; type: cell-based, human; details: 100 μM; as early as 24 hours, several days
Experimental: Paired cultures of SCC12F cells were maintained in a Dulbecco's modified Eagle's Medium-based keratinocyte growth medium (DMEM; GIBCO/BRL, Gaithersburg, Md.) supplemented with 10% fetal calf serum (Hyclone Labs, Logan, Utah) and epidermal growth factor as described (Hollander, M. C. et al., J. Biol. Chem. 268:328–336 (1992)). Pre-confluent cultures were given fresh medium supplemented with either 100 μM T2, or an equal volume of diluent. Cells were collected daily after additions, and processed for total RNA isolation using the Tri-Reagent extraction method (Molecular Research Center, Cincinnati, Ohio) following the protocol of the manufacturer. Ten micrograms of RNA from each sample was gel electrophoresed, transferred to a nylon filter and probed as described previously (Nada, A. et al., Exp. Cell Res. 211:90–98 (1994)). The cDNA for GADD 45 was generated by PCR using primers based on the human GADD 45 gene sequence (Mitsudomi, T. et al., Oncogene 7:171–180 (1992)). The cDNA for ERCC 3 was purchased from the American Type Culture Collection (ATCC, Rockville, Md.). The SDI 1 cDNA was a gift of Dr. J. Smith and has been described previously (Walworth, N.C. and Bernards, R., Science 271:353–356 (1996)).

contact hypersensitivity = assay: Contact hypersensitivity to DNFB (ear swelling); type: in vivo, C57B16 mice; details: 30 μl of 100 μM BID×5d topical to abdominal skin before sensitization
Experimental: C57B16 mice were subjected to the following treatment prior to sensitization with the allergen DNFB, by topical administration to abdominal skin; no pretreatment, UVB irradiation (200 J/m^2/dx4d), pTpT, pApA, or vehicle alone (30 μl of 100 μM BID×5d).

TNF-α gene = assay: TNFα promoter CAT reporter transgene in skin; type: in vivo, mice; details: intracutaneous pTpT 100 μM; LPS 1 μg/ml
Experimental: In another experiment, TNF-α gene activation was measured by utilizing mice carrying a CAT reporter transgene bearing the entire TNFα promoter and 3′-untranslated region. Transgenic mice were subjected to the following treatment prior to skin assay for CAT expression: UVB irradiation (200–700 J/m^2), intracutaneous injection of pTpT (100 μM); lipopolysaccharide (LPS 1 μg/ml) as positive control, or vehicle alone.

Substance | cell growth rate [1] | mRNAs for GADD 45, ERCC 3 and SDI 1 [2] | ear swelling responses to DNFB challenge (contact hypersensitivity) | CAT activity in skin (TNF-α gene)
deoxyadenine dinucleotide [pdApdA, reference compound] | has no effect | less effective or ineffective | 2.5±0.6 | 
lipopolysaccharide [LPS, reference compound] |  |  |  | CAT activity was detected
